The text below walks through data of patent US20070196361A1, “Long term administration of pharmacologically active agents” (priority 1999, published 2007).

For series [1], the system named is cancers responsive to paclitaxel. The series can be described thus: Long term administration of paclitaxel at sub-therapeutic dose levels in cancer treatment. It is filed as in vivo. The text has this: In rapidly dividing cells as in a tumor, different cells are in different phases of the cell cycle at any given time.
The entire dose is usually given on the first day of the 3 week cycle.

The next series has as its system tumor cell lines. The note with it: cited from earlier work.

Regarding `CC(=O)O[C@H]1C(=O)[C@@]2(C)[C@H]([C@H](OC(=O)c3ccccc3)[C@]3(O)C[C@H](OC(=O)[C@H](O)[C@@H](NC(=O)c4ccccc4)c4ccccc4)C(C)=C1C3(C)C)[C@]1(OC(C)=O)CO[C@@H]1C[C@@H]2O` [paclitaxel], the “benefit in the treatment of cancers responsive to paclitaxel” value in series [1] (continuous administration over 3 weeks, total cumulative dose e.g. 50-150 mg/m^2) is reported as “significant benefit is obtained”; in series [1] (plasma levels maintained at 0.01-0.05 μg/ml over a week or longer), “significant benefit is obtained”. Further, the “concentration at which paclitaxel is active on tumor cell lines” value in the series with tumor cell lines (in vitro, tumor cell lines) is around 0.5 µg/mL. Moreover, the “levels high enough to be cytotoxic to the tumor cells” value with tumor cell lines (tumor cells of the cancer being treated) is 500 to 1000 ng/mL.
